Test results taken from patent publication US20120321685A1, “COMPOSITIONS CONTAINING OILS HAVING A SPECIFIC GRAVITY HIGHER THAN THE SPECIFIC GRAVITY OF WATER” (SOL-GEL TECHNOLOGIES LTD., priority 2001, published 2012).

What was measured:
[1] = Solubility of BMDBM and other solid sunscreen actives in different solvents; assay type: physicochemical; conditions: in Dipropylene glycol Dibenzoate (Finetex Finsolv PG-22), 25° C.
Method: The solubility of commonly used sunscreen active ingredients was tested by heating a solution of below-mentioned solvents or their mixture to 50° C. under stirring. Access amount of the sunscreen active was added. After thorough mixing to dissolve the solid, the solution was allowed to cool to 25° C. over night in the water bath under constant oscillation and the access active precipitated. The solution was filtered using 0.2 μm PTFE filter, and the concentration of BMDBM was determined by HPLC equipped with UV diode array detector against standard solution of BMDBM. For the other sunscreen actives, the concentration of the active was determined spectroscopically against standard solution of the active. Table 1 lists the solubility values obtained for BMDBM and other sunscreen actives in different commercially available solvents.

[2] = cited from earlier work
[3] = Solubility of benzoyl peroxide in Finsolve PG-22; assay type: physicochemical
Method: The solubility of benzoyl peroxide in dipropylene glycol dibenzoate (Finsolv PG 22) was measured in a method similar to Example 1. Benzoyl peroxide concentration was determined by titration according to USP. The solubility of benzoyl peroxide in Finsolve PG-22 is 6 wt. %.

SMILES	Solvent specific gravity, acc. to D25/25 [2]	other results
COc1ccc(C(=O)c2ccccc2)c(O)c1 [Benzophenone-3]	–	Solubility, concentration [1]: 26.6 wt %
CCC(=O)OCc1ccccc1 [Benzyl propionate]	1.028-1.032	–
CC(COC(=O)c1ccccc1)OCC(C)OC(=O)c1ccccc1 (stereo not drawn) [Dermol DPG-2B, Dipropylene glycol Dibenzoate]	1.117	–
CCOC(=O)c1ccccc1 [Ethyl benzoate]	1.043-1.046	–
CCOC(=O)c1ccccc1O [Ethyl salicylate]	1.126-1.130	–
CC(COC(=O)c1ccccc1)OCC(C)OC(=O)c1ccccc1 (stereo not drawn) [Finsolv PG-22, Dipropylene glycol Dibenzoate]	1.12	–
Cc1ccc(/C=C2/C(=O)C3(C)CCC2C3(C)C)cc1 (stereo not drawn) [Methyl benzyledene camphor]	–	Solubility, concentration [1]: 30.16 wt %
O=C(OOC(=O)c1ccccc1)c1ccccc1 [benzoyl peroxide]	–	Solvent quality of dipropylene glycol dibenzoate for BPO ([3]; in dipropylene glycol dibenzoate): good solvent; Solubility of benzoyl peroxide in Finsolve PG-22 ([3]; in dipropylene glycol dibenzoate (Finsolv PG 22), method similar to Example 1, titration according to USP): 6 wt. %
